Laboratory results from patent US20250177448A1, “NEW USE OF PEG-PHOSPHOLIPID MOLECULES” (ICOAT MEDICAL AB, priority 2022, published 2025).
Entries after “also recorded” stand apart in the source; their conditions may differ.

Experiments:
Format in all cases: cell-based, human
CD4 = experiment: Antibody binding to surface antigen on PEG-phospholipid coated CCRF-CEM, flow cytometry; conditions: 2 mg/ml in PBS, 30 minutes room temperature; antigen 15 nm
Procedure: (§1) CCRF-CEM were collected from cell culture medium (1×10^6 cells) and washed with PBS by centrifugation (250×g, 3 min, RT). A cell pellet of CCRF-CEM (1×10^6 cells) was incubated with PEG-phospholipid (50 μl, 2 mg/ml in PBS), 5 kDa unconjugated PEG (50 μl, 2 mg/ml in PBS) or PBS (50 μl, as control) for 30 min at RT with gentle mixing. After washing with PBS by centrifugation (200×g, 4° C., 3 min) twice, FITC-labeled three antibodies, FITC-anti-human CD52 from BioLegend (400 μg/ml, 40 μl), FITC-anti-human CD4 from BioLegend (200 μg/ml, 40 μl), or Alexa488-labelled anti-human CD8 from GeneTex (200 μg/ml, 40 μl, Alexa488 was labelled by the labelling kit) or PBS (40 μl) was mixed with the treated CCRF-CEM for 15 min at RT. As a control, CCRF-CEM was treated with 2 mg/ml PEG (5 kDa, in PBS) solution and additionally incubated with FITC- or Alexa488-labeled antibodies. After washing with PBS by centrifugation (200×g, 4° C., 3 min), CCRF-CEM were re-suspended with PBS (1 ml) for flow cytometry measurements. Samples were analyzed on a flow cytometer (BD LSR II, BD Biosciences). Post analysis processing was carried out in FlowJo (BD).
(§2) CCRF-CEM cells were incubated with PEG-phospholipid (2 mg/ml in PBS), free PEG (5 kDa, equivalent molecular weight used in the synthesis of PEG-phospholipid) or PBS (vehicle control) for 30 minutes at room temperature. After removing excess PEG-phospholipid, FITC-labelled antibodies directed towards surface antigens of different sizes, CD52, CD4, and CD8, were added. Samples were analyzed on a flow cytometer. […] The size of CD8 is estimated to be around 5-10 nm based on the crystal structure of the non-membranous part. Lastly, CD4-antibodies were not blocked by PEG-phospholipid, as expected, given that the size of the antigen (15 nm) is larger than the size of PEG-phospholipid (estimated to be around 6 nm) (FIG. 3A).

CD52 = experiment: as above; conditions: 2 mg/ml in PBS, 30 minutes room temperature; antigen around 1 nm
Procedure: as §1, §2

CD8 = experiment: as above; conditions: 2 mg/ml in PBS, 30 minutes room temperature; antigen around 5-10 nm
Procedure: as §1, §2

RBCs = experiment: Complement mediated lysis of RBCs coated with PEG-phospholipid; conditions: ABO missmatched donors, vs non-treated controls, 37° C. 20 min
Procedure: In order to investigate if the PEG-phospholipid was able to protect against complement mediated lysis, RBCs were used from 13 different donors who were typed for Rh complex and ABO antigens. RBCs were isolated and preincubated with PEG-phospholipid at varying concentrations, free PEG or PBS as described above. Cells were then washed (and the supernatant stored for analysis) with PBS (800 g×5 min, RT) and incubated with human serum (where the complement system is active) for 20 minutes at 37° C. They were then spun down again (800 g×5 min) and the supernatant was collected for analysis of hemolysis. The RBCs were analyzed for complement fixation (cells were incubated for 10 min with a
FITC-labelled anti-C3c antibody). RBCs were resuspended with PBS (1 mL) for flow cytometry measurements. […] Post analysis processing was carried out in FlowJo (BD). The supernatant was analyzed on a variable wavelength detection plate reader, Synergy HTX, for the absorbance at 540 nm. RBCs, which were lysed via osmotic stress, were run in parallel as positive controls. The background absorbance at 540 nm from PBS containing no cells was subtracted and the difference in absorbance between cells coated with PEG-phospholipid or PBS was then calculated.

## N-(methylpolyoxyethylene oxycarbonyl)-1,2-dipalmitoyl-sn-glycero-3-phosphoethanolamine [PEG-phospholipid]
CD4
  binding of CD4-antibodies: not blocked; also recorded: no significant masking
CD52
  binding of antibodies directed towards CD52: entirely blocked; also recorded: near complete inhibition; also recorded: effective masking
CD8
  binding capacity of CD8-antibodies: reduced but not entirely blocked; also recorded: partial masking
RBCs
  complement-mediated RBC lysis: reduced complement-mediated RBC lysis in a dose dependent manner
